Several values for one entry are separate records, joined by “and”; a condition that tells them apart may be missing. Equal values may be shown once.
Test: Phase 1 single-ascending dose (Part 1): safety and tolerability in healthy adults
Format: in vivo, human
Method: This ongoing trial is a Phase 1 randomized, double-blind, placebo-controlled study in male and female healthy adult volunteers aged 18-55 years. All volunteers provided written, informed consent.
All volunteers were followed up for 4 weeks and safety and tolerability were continuously assessed throughout the study. All adverse events (AEs) were recorded from the time of consent to the completion visit and were graded using the DAIDS toxicity grading scale. Volunteers also underwent physical examinations, electrocardiograms, vital sign checks and clinical laboratory parameters (chemistry, haematology, urinalysis).

CCCCOc1nc(N)c2[nH]cc(Cc3ccc(CN4CCCC4)cc3)c2n1 [Compound 4]
subjects with at least one SAE (single dose 1.25 mg fasted): 0 n (%) | subjects with at least one fatal AE (single dose 1.25 mg fasted): 0 n (%) | subjects with at least one grade 1 AE (single dose 1.25 mg fasted): 7 (87.5%) n (%) | subjects with at least one grade 2 AE (single dose 1.25 mg fasted): 1 (12.5%) n (%) | subjects with at least one grade 3 or 4 AE (single dose 1.25 mg fasted): 0 n (%) | subjects with fever and flu-like symptoms (flu-like AEs and lymphopenia) (single dose 1.25 mg fasted): 3 and 3/8 | treatment-related AE: Any AE (single dose 1.25 mg fasted): 6 (75.0%) n (%) | treatment-related AE: Chills (single dose 1.25 mg fasted): 0 n (%) | treatment-related AE: Dizziness (single dose 1.25 mg fasted): 0 n (%) | treatment-related AE: General disorders and administration site conditions (single dose 1.25 mg fasted): 3 (37.5%) n (%) | treatment-related AE: Headache (single dose 1.25 mg fasted): 4 (50.0%) n (%) | treatment-related AE: Hypertension (single dose 1.25 mg fasted): 0 n (%) | treatment-related AE: Myalgia (single dose 1.25 mg fasted): 3 (37.5%) n (%) | treatment-related AE: Nervous system disorders (single dose 1.25 mg fasted): 4 (50.0%) n (%) | treatment-related AE: Oropharyngeal pain (single dose 1.25 mg fasted): 2 (25.0%) n (%) | treatment-related AE: Pyrexia (single dose 1.25 mg fasted): 3 (37.5%) n (%) | treatment-related AE: Respiratory, thoracic and mediastinal disorders (single dose 1.25 mg fasted): 2 (25.0%) n (%) | treatment-related AE: Vascular disorder (single dose 1.25 mg fasted): 0 n (%) | vital signs: Respiratory rate (brpm) Grade 1 (single dose 1.25 mg fasted): 7 (87.5%) n (%) | vital signs: Respiratory rate (brpm) Grade 2 (single dose 1.25 mg fasted): 0 n (%) | vital signs: SaO2 (%) 90% to <95% (single dose 1.25 mg fasted): 3 (37.5%) n (%) | vital signs: SaO2 (%) 95% to <98% (single dose 1.25 mg fasted): 3 (37.5%) n (%) | vital signs: Standing DBP (mmHg) Grade 1 (single dose 1.25 mg fasted): 1 (12.5%) n (%) | vital signs: Standing DBP (mmHg) Grade 2 (single dose 1.25 mg fasted): 2 (25.0%) n (%) | vital signs: Standing DBP (mmHg) Grade 3 (single dose 1.25 mg fasted): 0 n (%) | vital signs: Standing DBP (mmHg) Low (single dose 1.25 mg fasted): 0 n (%) | vital signs: Standing SBP (mmHg) Grade 1 (single dose 1.25 mg fasted): 1 (12.5%) n (%) | vital signs: Standing SBP (mmHg) Low (single dose 1.25 mg fasted): 1 (12.5%) n (%) | vital signs: Standing pulse (bpm) High (single dose 1.25 mg fasted): 1 (12.5%) n (%) | vital signs: Standing pulse (bpm) Low (single dose 1.25 mg fasted): 0 n (%) | vital signs: Supine DBP (mmHg) Grade 1 (single dose 1.25 mg fasted): 1 (12.5%) n (%) | vital signs: Supine DBP (mmHg) Low (single dose 1.25 mg fasted): 0 n (%) | vital signs: Supine SBP (mmHg) Grade 1 (single dose 1.25 mg fasted): 1 (12.5%) n (%) | vital signs: Supine SBP (mmHg) Grade 2 (single dose 1.25 mg fasted): 0 n (%) | vital signs: Supine SBP (mmHg) Low (single dose 1.25 mg fasted): 1 (12.5%) n (%) | vital signs: Supine pulse (bpm) Low (single dose 1.25 mg fasted): 0 n (%) | ↑ AST Grade 3 (laboratory abnormality) (single dose 1.25 mg fasted): 0 n (%) | ↑ Amylase Grade 2 (laboratory abnormality) (single dose 1.25 mg fasted): 0 n (%) | ↑ Cholesterol Grade 2 (laboratory abnormality) (single dose 1.25 mg fasted): 1 (17) n (%) | ↑ Creatine kinase Grade 2 (laboratory abnormality) (single dose 1.25 mg fasted): 0 n (%) | ↑ Creatine kinase Grade 4 (laboratory abnormality) (single dose 1.25 mg fasted): 0 n (%) | ↑ Glucose Grade 2 (laboratory abnormality) (single dose 1.25 mg fasted): 1 (13) n (%) | ↑ LDL cholesterol Grade 2 (laboratory abnormality) (single dose 1.25 mg fasted): 0 n (%) | ↑ LDL cholesterol Grade 3 (laboratory abnormality) (single dose 1.25 mg fasted): 1 (13) n (%) | ↑ Lipase Grade 2 (laboratory abnormality) (single dose 1.25 mg fasted): 0 n (%) | ↑ Pancreatic amylase Grade 2 (laboratory abnormality) (single dose 1.25 mg fasted): 0 n (%) | ↑ Potassium Grade 2 (laboratory abnormality) (single dose 1.25 mg fasted): 0 n (%) | ↑ Sodium Grade 2 (laboratory abnormality) (single dose 1.25 mg fasted): 1 (13) n (%) | ↑ Triglycerides Grade 2 (laboratory abnormality) (single dose 1.25 mg fasted): 4 (50) n (%) | ↑ Triglycerides Grade 3 (laboratory abnormality) (single dose 1.25 mg fasted): 0 n (%) | ↓ Bicarbonate Grade 2 (laboratory abnormality) (single dose 1.25 mg fasted): 0 n (%) | ↓ Lymphocytes Grade 2 (laboratory abnormality) (single dose 1.25 mg fasted): 1 (13) n (%) | ↓ Lymphocytes Grade 4 (laboratory abnormality) (single dose 1.25 mg fasted): 0 n (%) | ↓ Neutrophils Grade 2 (laboratory abnormality) (single dose 1.25 mg fasted): 0 n (%) | ↓ Phosphate Grade 2 (laboratory abnormality) (single dose 1.25 mg fasted): 0 n (%) | Any AE (treatment-emergent) (single dose 1.25 mg fed): 6 (86) n (%) | Back pain Grade 1 (treatment-emergent AE) (single dose 1.25 mg fed): 0 n (%) | Chills Grade 1 (treatment-emergent AE) (single dose 1.25 mg fed): 0 n (%) | Contact dermatitis Grade 1 (treatment-emergent AE) (single dose 1.25 mg fed): 0 n (%) | Dizziness Grade 1 (treatment-emergent AE) (single dose 1.25 mg fed): 0 n (%) | ECG actual value: Heart rate (bpm) Low (single dose 1.25 mg fed): 0 n (%) | ECG actual value: QRS (ms) High (single dose 1.25 mg fed): 0 n (%) | ECG actual value: QTcB (ms) ]450; 480] (single dose 1.25 mg fed): 0 n (%) | ECG actual value: QTcF (ms) ]450; 480] (single dose 1.25 mg fed): 0 n (%) | ECG change from reference: QTcB (ms) [30; 60] (single dose 1.25 mg fed): 2 (28.6%) n (%) | ECG change from reference: QTcF (ms) [30; 60] (single dose 1.25 mg fed): 1 (14.3%) n (%) | Headache Grade 1 (treatment-emergent AE) (single dose 1.25 mg fed): 1 (14) n (%) | Headache Grade 2 (treatment-emergent AE) (single dose 1.25 mg fed): 0 n (%) | Hypertension Grade 1 (treatment-emergent AE) (single dose 1.25 mg fed): 0 n (%) | Hypertension Grade 2 (treatment-emergent AE) (single dose 1.25 mg fed): 0 n (%) | Myalgia Grade 1 (treatment-emergent AE) (single dose 1.25 mg fed): 0 n (%) | Oropharyngeal pain Grade 1 (treatment-emergent AE) (single dose 1.25 mg fed): 2 (29) n (%) | Pyrexia Grade 1 (treatment-emergent AE) (single dose 1.25 mg fed): 0 n (%) | Pyrexia Grade 2 (treatment-emergent AE) (single dose 1.25 mg fed): 0 n (%) | URTI Grade 1 (treatment-emergent AE) (single dose 1.25 mg fed): 1 (14) n (%) | lab toxicity: Amylase (U/L), upwards, Grade 1 (single dose 1.25 mg fed): 1 (14.3%) n (%) | lab toxicity: Amylase (U/L), upwards, Grade 2 (single dose 1.25 mg fed): 0 n (%) | lab toxicity: Cholesterol (mmol/L), upwards, Grade 1 (single dose 1.25 mg fed): 0 n (%) | lab toxicity: Cholesterol (mmol/L), upwards, Grade 2 (single dose 1.25 mg fed): 0 n (%) | lab toxicity: Creatine kinase (U/L), upwards, Grade 1 (single dose 1.25 mg fed): 0 n (%) | lab toxicity: Creatine kinase (U/L), upwards, Grade 2 (single dose 1.25 mg fed): 0 n (%) | lab toxicity: Creatine kinase (U/L), upwards, Grade 4 (single dose 1.25 mg fed): 0 n (%) | lab toxicity: Glucose (mmol/L), upwards, Grade 1 (single dose 1.25 mg fed): 2 (28.6%) n (%) | lab toxicity: Glucose (mmol/L), upwards, Grade 2 (single dose 1.25 mg fed): 0 n (%) | lab toxicity: LDL cholesterol (mmol/L, calculated), upwards, Grade 1 (single dose 1.25 mg fed): 1 (14.3%) n (%) | lab toxicity: LDL cholesterol (mmol/L, calculated), upwards, Grade 2 (single dose 1.25 mg fed): 0 n (%) | lab toxicity: LDL cholesterol (mmol/L, calculated), upwards, Grade 3 (single dose 1.25 mg fed): 0 n (%) | lab toxicity: Lymphocytes (giga/L), downwards, Grade 2 (single dose 1.25 mg fed): 0 n (%) | lab toxicity: Lymphocytes (giga/L), downwards, Grade 4 (single dose 1.25 mg fed): 0 n (%) | lab toxicity: Neutrophils, segmented (giga/L), downwards, Grade 1 (single dose 1.25 mg fed): 0 n (%) | lab toxicity: Neutrophils, segmented (giga/L), downwards, Grade 2 (single dose 1.25 mg fed): 0 n (%) | lab toxicity: Platelets (giga/L), downwards, Grade 1 (single dose 1.25 mg fed): 0 n (%) | lab toxicity: Sodium (mmol/L), upwards, Grade 1 (single dose 1.25 mg fed): 3 (42.9%) n (%) | lab toxicity: Sodium (mmol/L), upwards, Grade 2 (single dose 1.25 mg fed): 0 n (%) | lab toxicity: Triglycerides (mmol/L), upwards, Grade 1 (single dose 1.25 mg fed): 3 (42.9%) n (%) | lab toxicity: Triglycerides (mmol/L), upwards, Grade 2 (single dose 1.25 mg fed): 1 (14.3%) n (%) | lab toxicity: Triglycerides (mmol/L), upwards, Grade 3 (single dose 1.25 mg fed): 0 n (%) | lab toxicity: Urate (μmol/L), upwards, Grade 1 (single dose 1.25 mg fed): 0 n (%) | subjects with at least one AE (single dose 1.25 mg fed): 6 (85.7%) n (%) | subjects with at least one AE for which any study drug or study was permanently stopped (single dose 1.25 mg fed): 0 n (%) | subjects with at least one AE for which any study drug or study was temporarily stopped (single dose 1.25 mg fed): 0 n (%) | subjects with at least one AE possibly related to any study drug (single dose 1.25 mg fed): 1 (14.3%) n (%) | subjects with at least one AE possibly, probably or very likely related to any study drug (single dose 1.25 mg fed): 1 (14.3%) n (%) | subjects with at least one AE probably related to any study drug (single dose 1.25 mg fed): 0 n (%) | subjects with at least one AE very likely related to any study drug (single dose 1.25 mg fed): 0 n (%) | subjects with at least one SAE (single dose 1.25 mg fed): 0 n (%) | subjects with at least one fatal AE (single dose 1.25 mg fed): 0 n (%) | subjects with at least one grade 1 AE (single dose 1.25 mg fed): 6 (85.7%) n (%) | subjects with at least one grade 2 AE (single dose 1.25 mg fed): 0 n (%) | subjects with at least one grade 3 or 4 AE (single dose 1.25 mg fed): 0 n (%) | treatment-related AE: Any AE (single dose 1.25 mg fed): 1 (14.3%) n (%) | treatment-related AE: Chills (single dose 1.25 mg fed): 0 n (%) | treatment-related AE: Dizziness (single dose 1.25 mg fed): 0 n (%) | treatment-related AE: General disorders and administration site conditions (single dose 1.25 mg fed): 0 n (%) | treatment-related AE: Headache (single dose 1.25 mg fed): 0 n (%) | treatment-related AE: Hypertension (single dose 1.25 mg fed): 0 n (%) | treatment-related AE: Myalgia (single dose 1.25 mg fed): 0 n (%) | treatment-related AE: Nervous system disorders (single dose 1.25 mg fed): 0 n (%) | treatment-related AE: Oropharyngeal pain (single dose 1.25 mg fed): 1 (14.3%) n (%) | treatment-related AE: Pyrexia (single dose 1.25 mg fed): 0 n (%) | treatment-related AE: Respiratory, thoracic and mediastinal disorders (single dose 1.25 mg fed): 1 (14.3%) n (%) | treatment-related AE: Vascular disorder (single dose 1.25 mg fed): 0 n (%) | vital signs: Respiratory rate (brpm) Grade 1 (single dose 1.25 mg fed): 3 (42.9%) n (%) | vital signs: Respiratory rate (brpm) Grade 2 (single dose 1.25 mg fed): 0 n (%) | vital signs: SaO2 (%) 90% to <95% (single dose 1.25 mg fed): 1 (14.3%) n (%) | vital signs: SaO2 (%) 95% to <98% (single dose 1.25 mg fed): 3 (42.9%) n (%) | vital signs: Standing DBP (mmHg) Grade 1 (single dose 1.25 mg fed): 1 (14.3%) n (%) | vital signs: Standing DBP (mmHg) Grade 2 (single dose 1.25 mg fed): 2 (28.6%) n (%) | vital signs: Standing DBP (mmHg) Grade 3 (single dose 1.25 mg fed): 1 (14.3%) n (%) | vital signs: Standing DBP (mmHg) Low (single dose 1.25 mg fed): 0 n (%) | vital signs: Standing SBP (mmHg) Grade 1 (single dose 1.25 mg fed): 3 (42.9%) n (%) | vital signs: Standing SBP (mmHg) Low (single dose 1.25 mg fed): 0 n (%) | vital signs: Standing pulse (bpm) High (single dose 1.25 mg fed): 1 (14.3%) n (%) | vital signs: Standing pulse (bpm) Low (single dose 1.25 mg fed): 0 n (%) | vital signs: Supine DBP (mmHg) Grade 1 (single dose 1.25 mg fed): 1 (14.3%) n (%) | vital signs: Supine DBP (mmHg) Low (single dose 1.25 mg fed): 0 n (%)

Reference: US12263172B2, “Toll-like receptor agonists for use in the treatment of hepatitis b” (priority 2019, dated 2025)
